Where two headings read alike, the source gives them in different places.
What was measured:
Assay type in all cases: cell-based
HCC-2998 = assay: NCI60 one-dose screen; conditions: Homo sapiens
CAKI-1 = assay: NCI60 one-dose screen; conditions: Homo sapiens
T-47D = assay: NCI60 one-dose screen; conditions: Homo sapiens, T47D, read-out: Growth percent
MDA-MB-468 = assay: NCI60 one-dose screen; conditions: Homo sapiens
BT-549 [1] = assay: NCI60 five-dose screen; conditions: Homo sapiens
NCI-H522 = assay: NCI60 one-dose screen; conditions: Homo sapiens
OVCAR-8 [2] = assay: NCI60 five-dose screen; conditions: Homo sapiens
PC-3 [3] = assay: NCI60 one-dose screen; conditions: Homo sapiens
HOP-92 = assay: NCI60 one-dose screen; conditions: Homo sapiens
OVCAR-8 [4] = assay: NCI60 one-dose screen; conditions: Homo sapiens
RXF 393 = assay: NCI60 one-dose screen; conditions: Homo sapiens
OVCAR-5 = assay: NCI60 five-dose screen; conditions: Homo sapiens
786-0 [5] = assay: NCI60 five-dose screen; conditions: Homo sapiens
MDA-MB-231/ATCC = assay: NCI60 one-dose screen; conditions: Homo sapiens
OVCAR-3 = assay: NCI60 one-dose screen; conditions: Homo sapiens
SR = assay: NCI60 one-dose screen; conditions: Homo sapiens, read-out: Growth percent
MOLT-4 [6] = assay: NCI60 one-dose screen; conditions: Homo sapiens
KM12 = assay: NCI60 one-dose screen; conditions: Homo sapiens
SW-620 = assay: NCI60 one-dose screen; conditions: Homo sapiens
UACC-257 = assay: NCI60 one-dose screen; conditions: Homo sapiens
TK-10 = assay: NCI60 one-dose screen; conditions: Homo sapiens
SNB-19 = assay: NCI60 five-dose screen; conditions: Homo sapiens
LOX IMVI = assay: NCI60 five-dose screen; conditions: Homo sapiens
SK-OV-3 = assay: NCI60 one-dose screen; conditions: Homo sapiens
SF-539 = assay: NCI60 five-dose screen; conditions: Homo sapiens
RPMI-8226 = assay: NCI60 one-dose screen; conditions: Homo sapiens
HT29 = assay: NCI60 five-dose screen; conditions: Homo sapiens, HT-29
Renal Cancer panel = assay: NCI60 five-dose screen, panel mean; conditions: Homo sapiens
M14 = assay: NCI60 five-dose screen; conditions: Homo sapiens
NCI-H322M = assay: NCI60 five-dose screen; conditions: Homo sapiens
MOLT-4 [7] = assay: NCI60 five-dose screen; conditions: Homo sapiens
Melanoma panel = assay: NCI60 five-dose screen, panel mean; conditions: Homo sapiens
SNB-75 = assay: NCI60 one-dose screen; conditions: Homo sapiens
K-562 = assay: NCI60 five-dose screen; conditions: Homo sapiens, K562
OVCAR-4 = assay: NCI60 one-dose screen; conditions: Homo sapiens
HCT-15 = assay: NCI60 one-dose screen; conditions: Homo sapiens
PC-3 [8] = assay: NCI60 five-dose screen; conditions: Homo sapiens
SK-MEL-28 = assay: NCI60 one-dose screen; conditions: Homo sapiens
786-0 [9] = assay: NCI60 one-dose screen; conditions: Homo sapiens
A498 = assay: NCI60 one-dose screen; conditions: Homo sapiens
BT-549 [10] = assay: NCI60 one-dose screen; conditions: Homo sapiens
SF-295 = assay: NCI60 one-dose screen; conditions: Homo sapiens
Colon Cancer panel = assay: NCI60 five-dose screen, panel mean; conditions: Homo sapiens
[11] = test system: Non-small Cell Lung Cancer panel; assay: NCI60 five-dose screen, panel mean; conditions: Homo sapiens
NCI/ADR-RES = assay: NCI60 five-dose screen; conditions: Homo sapiens

## CCC12C=CCN3CCC4(c5ccc(OC)cc5N(C)C4C(O)(C(=O)OC)C1OC(=O)c1ccc(C[P+](c4ccccc4)(c4ccccc4)c4ccccc4)cc1)C32 (stereo not drawn) [compound 12]
HCC-2998; HCC-2998, 10 μM, one-dose, read-out: Growth percent
  activity at 10 µM: -74.6%
CAKI-1; CAKI-1, 10 μM, one-dose, read-out: Growth percent
  activity at 10 µM: -7.04%
T-47D; T-47D, 10 μM, one-dose
  activity at 10 µM: 7.1%
MDA-MB-468; MDA-MB-468, 10 μM, one-dose, read-out: Growth percent
  activity at 10 µM: -49.2%
BT-549 [1]; BT-549, Breast Cancer, read-out: GI50
  GI50: 538 nM
NCI-H522; NCI-H522, 10 μM, one-dose, read-out: Growth percent
  activity at 10 µM: -17.4%
OVCAR-8 [2]; OVCAR-8, Ovarian Cancer, read-out: GI50
  GI50: 3180 nM
PC-3 [3]; PC-3, 10 μM, one-dose, read-out: Growth percent
  activity at 10 µM: -21.9%
HOP-92; HOP-92, 10 μM, one-dose, read-out: Growth percent
  activity at 10 µM: -73.4%
OVCAR-8 [4]; OVCAR-8, 10 μM, one-dose, read-out: Growth percent
  activity at 10 µM: -18.5%
RXF 393; RXF 393, 10 μM, one-dose, read-out: Growth percent
  activity at 10 µM: -61.8%
OVCAR-5; OVCAR-5, Ovarian Cancer, read-out: GI50
  GI50: 1990 nM
786-0 [5]; 786-0, Renal Cancer, read-out: GI50
  GI50: 3580 nM
MDA-MB-231/ATCC; MDA-MB-231/ATCC, 10 μM, one-dose, read-out: Growth percent
  activity at 10 µM: -91.5%
OVCAR-3; OVCAR-3, 10 μM, one-dose, read-out: Growth percent
  activity at 10 µM: -63.4%
SR; 10 μM, one-dose
  activity at 10 µM: -58.3%
MOLT-4 [6]; MOLT-4, 10 μM, one-dose, read-out: Growth percent
  activity at 10 µM: -53%
KM12; KM12, 10 μM, one-dose, read-out: Growth percent
  activity at 10 µM: -65.8%
SW-620; SW-620, 10 μM, one-dose, read-out: Growth percent
  activity at 10 µM: -66%
UACC-257; UACC-257, 10 μM, one-dose, read-out: Growth percent
  activity at 10 µM: -67.6%
TK-10; TK-10, 10 μM, one-dose, read-out: Growth percent
  activity at 10 µM: 21.4%
SNB-19; SNB-19, SNB-19, CNS Cancer, read-out: GI50
  GI50: 725 nM
LOX IMVI; Melanoma, read-out: GI50
  GI50: 1820 nM
SK-OV-3; SK-OV-3, 10 μM, one-dose, read-out: Growth percent
  activity at 10 µM: -13.2%
SF-539; SF-539, CNS Cancer, read-out: GI50
  GI50: 1260 nM
RPMI-8226; RPMI-8226, 10 μM, one-dose, read-out: Growth percent
  activity at 10 µM: -50.8%
HT29; HT29, Colon Cancer, read-out: GI50
  GI50: 541 nM
Renal Cancer panel; mean over Renal Cancer panel, read-out: GI50 Mean
  GI50: 8300 nM
M14; M14, Melanoma, read-out: GI50
  GI50: 1350 nM
NCI-H322M; Non-small Cell Lung Cancer, read-out: GI50
  GI50: 4760 nM
MOLT-4 [7]; MOLT-4, Leukemia, read-out: GI50
  GI50: 1470 nM
Melanoma panel; mean over Melanoma panel, read-out: GI50 Mean
  GI50: 1030 nM
SNB-75; SNB-75, 10 μM, one-dose, read-out: Growth percent
  activity at 10 µM: -61.7%
K-562; K-562, Leukemia, read-out: GI50
  GI50: 448 nM
OVCAR-4; OVCAR-4, 10 μM, one-dose, read-out: Growth percent
  activity at 10 µM: 7.65%
HCT-15; HCT-15, 10 μM, one-dose, read-out: Growth percent
  activity at 10 µM: 90.1%
PC-3 [8]; PC-3, Prostate Cancer, read-out: GI50
  GI50: 657 nM
SK-MEL-28; SK-MEL-28, 10 μM, one-dose, read-out: Growth percent
  activity at 10 µM: -92.4%
786-0 [9]; 786-0, 10 μM, one-dose, read-out: Growth percent
  activity at 10 µM: -47.8%
A498; A498, 10 μM, one-dose, read-out: Growth percent
  activity at 10 µM: 70.2%
BT-549 [10]; BT-549, 10 μM, one-dose, read-out: Growth percent
  activity at 10 µM: -89.1%
SF-295; SF-295, 10 μM, one-dose, read-out: Growth percent
  activity at 10 µM: 5.9%
Colon Cancer panel; mean over Colon Cancer panel, read-out: GI50 Mean
  GI50: 4690 nM
[11]; mean over Non-small Cell Lung Cancer panel, read-out: GI50 Mean
  GI50: 2050 nM
NCI/ADR-RES; Ovarian Cancer, read-out: GI50
  GI50: > 100000 nM

## CCC12C=CCN3CCC4(c5ccc(OC)cc5N(C)C4C(O)(C(=O)OC)C1OC(=O)CCC[P+](c1ccc(C)cc1)(c1ccc(C)cc1)c1ccc(C)cc1)C32 (stereo not drawn) [9a]
HCC-2998; HCC 2998, read-out: Growth percent
  activity at 10 µM: -91.4%
CAKI-1; CAKI-1, read-out: Growth percent
  activity at 10 µM: -95.3%
T-47D
  activity at 10 µM: -78.4%
MDA-MB-468; MDA-MB-468, read-out: Growth percent
  activity at 10 µM: -92.1%
BT-549 [1]; BT-549
  GI50: 247 nM
NCI-H522; NCI-H522, read-out: Growth percent
  activity at 10 µM: -86.3%
OVCAR-8 [2]; OVCAR-8
  GI50: 372 nM
PC-3 [3]; PC-3, read-out: Growth percent
  activity at 10 µM: -83.3%
HOP-92; HOP-92, read-out: Growth percent
  activity at 10 µM: -83.2%
OVCAR-8 [4]; OVCAR-8, read-out: Growth percent
  activity at 10 µM: -85%
RXF 393; RXF 393, read-out: Growth percent
  activity at 10 µM: -82.8%
OVCAR-5; OVCAR-5
  GI50: 331 nM
786-0 [5]; 786-0
  GI50: 1060 nM
MDA-MB-231/ATCC; MDA-MB-231, read-out: Growth percent
  activity at 10 µM: -94.8%
OVCAR-3; OVCAR-3, read-out: Growth percent
  activity at 10 µM: -61.9%
SR
  activity at 10 µM: 5.74%
MOLT-4 [6]; MOLT-4, read-out: Growth percent
  activity at 10 µM: -45.1%
KM12; KM12, read-out: Growth percent
  activity at 10 µM: -76.1%
SW-620; SW-620, read-out: Growth percent
  activity at 10 µM: -85.2%
UACC-257; UACC-257, read-out: Growth percent
  activity at 10 µM: -92.7%
TK-10; TK-10, read-out: Growth percent
  activity at 10 µM: -88.5%
SNB-19; SNB-19
  GI50: 306 nM
LOX IMVI
  GI50: 333 nM
SK-OV-3; SK-OV-3, read-out: Growth percent
  activity at 10 µM: -81%
SF-539; SF-539
  GI50: 338 nM
RPMI-8226; RPMI-8226, read-out: Growth percent
  activity at 10 µM: -56.3%
HT29
  GI50: 219 nM
Renal Cancer panel; read-out: Mean GI50
  GI50: 1050 nM
M14; M14
  GI50: 456 nM
NCI-H322M
  GI50: 785 nM
MOLT-4 [7]; MOLT-4
  GI50: 294 nM
Melanoma panel; read-out: Mean GI50
  GI50: 350 nM
SNB-75; SNB-75, read-out: Growth percent
  activity at 10 µM: -61.2%
K-562
  GI50: 291 nM
OVCAR-4; OVCAR-4, read-out: Growth percent
  activity at 10 µM: -73.5%
HCT-15; HCT-15, read-out: Growth percent
  activity at 10 µM: -91%
PC-3 [8]; PC-3
  GI50: 310 nM
SK-MEL-28; SK-MEL-28, read-out: Growth percent
  activity at 10 µM: -96.6%
786-0 [9]; 786-0, read-out: Growth percent
  activity at 10 µM: -88%
A498; A498, read-out: Growth percent
  activity at 10 µM: -88.6%
BT-549 [10]; BT-549, read-out: Growth percent
  activity at 10 µM: -96.9%
SF-295; SF-295, read-out: Growth percent
  activity at 10 µM: -89.1%
Colon Cancer panel; read-out: Mean GI50
  GI50: 510 nM
[11]; read-out: Mean GI50
  GI50: 410 nM
NCI/ADR-RES
  GI50: 8870 nM
